Data on 20 compounds can be found in patent publication US12583818B2 (DAEGU-GYEONGBUK MEDICAL INNOVATION FOUNDATION, priority 2020, dated 2026).

Experiment [1] has as its system A2780-SP cells (ovarian cancer stem cells). Nature of the experiment: Sphere cell viability of A2780-SP cells (Cell-titer Glo). It is filed as cell-based. The procedure: (§1) In order to confirm the inhibitory effect of the compound represented by formula 1 according to the present invention on the growth of MCF7, MCF7-SP, A2780 or A2780-SP cells, the following experiment was performed, and the results are shown in Tables 4 and 5 below.
On the other hand, A2780-SP cells (ovarian cancer stem cells) were plated in an Ultra-Low Attachment round bottom 96-well plate (corning) at the density of 1,500 viable cells per well, and cultured in cancer stem cell medium. The cancer stem cell medium is composed of the neurobasal medium supplemented with 20 ng/ml of bFGF, 10 ng/ml of EGF, […] of amphotericin B, HEPES, Glutamax and B27.
On the next day of culture, the cells were treated with the compound of Examples 57, and 69 to 144, followed by culture for 8 days. The medium containing the compound was added thereto once again on the 4th day. Sphere cell viability was evaluated by Cell-titer Glo (Promega, WC, USA), and luciferase activity was detected using a Tecan plate reader (Biocompare, USA).

A further experiment addresses T1, Pin1 (Homo sapiens, UniProt Q13526).
T1 construct: purchased Anaspec
Nature of the experiment: Evaluation of Pin1 enzyme inhibitory activity (Sensolyte Green Pin1 assay kit). It is filed as biochemical. The method, boiled down:
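Compounds were tested at four working concentrations (100, 10, 1, 0.1 μM), mixed with Pin1 (50 μg/ml stock dilution), developer and substrate (1 μM as prepared). Fluorescence at 490/520 nm was recorded after 2 h in the dark at room temperature. Results were grouped into grades A–D by inhibiting concentration.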

Experiment [2] relates to A2780 cells (ovarian cancer cells). Nature of the experiment: Cell viability of A2780 cells (Cell-titer Glo). The experiment is classed as cell-based. Conditions: Homo sapiens. The procedure: as §1
In addition, A2780 cells (ovarian cancer cells) were plated in a 96-well plate at the density of 3000 viable cells per well, and cultured in RPMI-1640 medium supplemented with 10% FBS and 1% penicillin/streptomycin.
On the next day of culture, the cells were treated with the compound of Examples 57, and 69 to 144, followed by culture for 3 days. Cell viability was evaluated by Cell-titer Glo (Promega, WC, USA), and luciferase activity was detected using a Tecan plate reader (Biocompare, USA).

Where [3] appears, read: 192 h, sphere cell viability, culture for 8 days, read-out: A2780-SP.
Setting [4] is: concentration at which the Pin1 enzyme activity is inhibited, 2 hours at room temperature, fluorescence 490 nm/520 nm, read-out: Pin 1 inhibition.
Where [5] appears, read: 72 h, cell viability, culture for 3 days, read-out: A2780.
Setting [6] is: Table 5, read-out: the concentration (second list of b710, cell line not named; matches A2780-SP column).
Where [7] appears, read: Table 2, read-out: concentration at which Pin1 inhibitory activity was exhibited.
The mark [8] stands for this setting: A2780, Table 5, read-out: A2780 cell concentration.

Like-named read-outs stand apart in the source and are kept apart here.

T1 sequence (Q13526 whole entry): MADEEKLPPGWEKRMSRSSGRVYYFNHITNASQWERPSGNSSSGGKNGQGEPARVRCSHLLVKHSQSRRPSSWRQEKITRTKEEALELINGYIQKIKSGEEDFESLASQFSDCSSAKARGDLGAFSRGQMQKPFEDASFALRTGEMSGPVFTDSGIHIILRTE

Consider `O=S(=O)(NCCCc1c[nH]c2ccc(Cl)cc12)c1cccc(OCCCN2CCCCC2)c1` [Example 95, N-(3-(5-chloro-1H-indol-3-yl)propyl)-3-(3-(piperidin-1-yl)propoxy)benzenesulfonamide], for which the IC50 is 1000 to 10000 nM in experiment [1] (setting [3]), 1000 to 10000 nM at Pin1 (setting [4]) and above 10000 nM in experiment [2] (setting [5]).

As for `O=S(=O)(NCCCc1c[nH]c2ccc(Cl)cc12)c1ccc(OCCCN2CCCC2)cc1` [Example 100, N-(3-(5-chloro-1H-indol-3-yl)propyl)-4-(3-(pyrrolidin-1-yl)propoxy)benzenesulfonamide], the IC50 was below 1000 nM in experiment [1] (setting [3]); below 1000 nM in experiment [1] (setting [6]); below 1000 nM on Pin1 (setting [7]); below 1000 nM at Pin1 (setting [4]); 1000 to 10000 nM in experiment [2] (setting [5]); below 10000 nM in experiment [2] (setting [8]).

Regarding `C[C@@H]1CN(CCCOc2ccc(S(=O)(=O)NCCCc3c[nH]c4ccc(Cl)cc34)cc2)CCN1` [Example 108, (R)—N-(3-(5-chloro-1H-indol-3-yl)propyl)-4-(3-(3-methylpiperazin-1-yl)propoxy)benzenesulfonamide], the IC50 in experiment [1] (setting [3]) was below 1000 nM; in experiment [1] (setting [6]) it was below 1000 nM; on Pin1 (setting [7]), below 1000 nM; at Pin1 (setting [4]) it was below 1000 nM; in experiment [2] (setting [5]) it was 1000 to 10000 nM; in experiment [2] (setting [8]) it was below 10000 nM.

On to `C[C@H]1CN(CCCOc2ccc(S(=O)(=O)NCCCc3c[nH]c4ccc(Cl)cc34)cc2)CCN1` [Example 109, (S)—N-(3-(5-chloro-1H-indol-3-yl)propyl)-4-(3-(3-methylpiperazin-1-yl)propoxy)benzenesulfonamide], for which the IC50 is below 1000 nM in experiment [1] (setting [3]); below 1000 nM in experiment [1] (setting [6]); below 1000 nM at Pin1 (setting [7]); below 1000 nM at Pin1 (setting [4]); 1000 to 10000 nM in experiment [2] (setting [5]); below 10000 nM in experiment [2] (setting [8]).

Consider `C[C@@H]1CN(CCCOc2ccc(S(=O)(=O)NCCCc3c[nH]c4ccc(Cl)cc34)cc2)C[C@H](C)N1` [Example 110, N-(3-(5-chloro-1H-indol-3-yl)propyl)-4-(3-((3S,5R)-3,5-dimethylpiperazin-1-yl)propoxy)benzenesulfonamide], for which the IC50 is below 1000 nM in experiment [1] (setting [3]), below 1000 nM in experiment [1] (setting [6]), 1000 to 10000 nM on Pin1 (setting [4]) and above 10000 nM in experiment [2] (setting [5]).

`C[C@H]1CN(CCCOc2ccc(S(=O)(=O)NCCCc3c[nH]c4ccc(Cl)cc34)cc2)CCN1C` [Example 111, (S)—N-(3-(5-chloro-1H-indol-3-yl)propyl)-4-(3-(3,4-dimethylpiperazin-1-yl)propoxy)benzenesulfonamide]: the IC50 is below 1000 nM in experiment [1] (setting [3]), below 1000 nM in experiment [1] (setting [6]), 1000 to 10000 nM on Pin1 (setting [4]) and above 10000 nM in experiment [2] (setting [5]).

`CN1CCN(CCCCc2ccc(S(=O)(=O)NCCCc3c[nH]c4ccc(Cl)cc34)cc2)CC1` [Example 112, N-(3-(5-chloro-1H-indol-3-yl)propyl)-4-(4-(4-methylpiperazin-1-yl)butyl)benzenesulfonamide]: the IC50 in experiment [1] (setting [3]) is below 1000 nM; in experiment [1] (setting [6]), below 1000 nM; at Pin1 (setting [7]) it was below 1000 nM; on Pin1 (setting [4]), below 1000 nM; in experiment [2] (setting [5]) it was above 10000 nM.

Regarding `CN1CCC(CCCCc2ccc(S(=O)(=O)NCCCc3c[nH]c4ccc(Cl)cc34)cc2)CC1` [Example 115, N-(3-(5-chloro-1H-indol-3-yl)propyl)-4-(4-(1-methylpiperidin-4-yl)butyl)benzenesulfonamide], the IC50 (in experiment [1] (setting [3]); in experiment [1] (setting [6]); on Pin1 (setting [7]); on Pin1 (setting [4])) was below 1000 nM in each case.

`O=S(=O)(NCCCc1c[nH]c2ccc(Cl)cc12)c1ccc(OCC2(CN3CCNCC3)CC2)cc1` [Example 117, N-(3-(5-chloro-1H-indol-3-yl)propyl)-4-((1-(piperazin-1-ylmethyl)cyclopropyl)methoxy)benzenesulfonamide]: the figures for the IC50 (in experiment [1] (setting [3]); on Pin1 (setting [7]); at Pin1 (setting [4])) were 1000 to 10000 nM, below 1000 nM and below 1000 nM, respectively.

On to `CN1CCN(c2cc(Oc3ccc(S(=O)(=O)NCCCc4c[nH]c5ccc(Cl)cc45)cc3)cc(N3CCN(C)CC3)c2)CC1` [Example 130, 4-(3,5-bis(4-methylpiperazine-1-yl)phenoxy)-N-(3-(5-chloro-1H-indole-3-yl)propyl)benzenesulfonamide], for which the IC50 in experiment [1] (setting [3]) was 1000 to 10000 nM; on Pin1 (setting [7]), below 1000 nM; on Pin1 (setting [4]), below 1000 nM; in experiment [2] (setting [5]), 1000 to 10000 nM; in experiment [2] (setting [8]) it was below 10000 nM.

On to `CN1CCN(c2ccnc(Nc3ccc(S(=O)(=O)NCCCc4c[nH]c5ccc(Cl)cc45)cc3)c2)CC1` [Example 133, N-(3-(5-chloro-1H-indol-3-yl)propyl)-4-((4-(4-methylpiperazin-1-yl)pyridin-2-yl)amino)benzenesulfonamide], for which the IC50 in experiment [1] (setting [3]) is 1000 to 10000 nM; on Pin1 (setting [7]), below 1000 nM; on Pin1 (setting [4]), below 1000 nM; in experiment [2] (setting [5]) it was above 10000 nM.

For `O=S(=O)(NCCCc1c[nH]c2ccc(Cl)cc12)c1ccc(Nc2cc(N3CCNCC3)ccn2)cc1` [Example 134, N-(3-(5-chloro-1H-indol-3-yl)propyl)-4-((4-(piperazin-1-yl)pyridin-2-yl)amino)benzenesulfonamide], the IC50 was below 1000 nM in experiment [1] (setting [3]); below 1000 nM in experiment [1] (setting [6]); below 1000 nM on Pin1 (setting [7]); below 1000 nM at Pin1 (setting [4]); above 10000 nM in experiment [2] (setting [5]).

`CN1CCN(c2cc(F)cc(Oc3ccc(S(=O)(=O)NCCCc4c[nH]c5ccc(Cl)cc45)cc3)c2)CC1` [Example 137, N-(3-(5-chloro-1H-indol-3-yl)propyl)-4-(3-fluoro-5-(4-methylpiperazin-1-yl)phenoxy)benzenesulfonamide]: the IC50 in experiment [1] (setting [3]) is 1000 to 10000 nM; on Pin1 (setting [7]), below 1000 nM; at Pin1 (setting [4]), below 1000 nM; in experiment [2] (setting [5]) it was above 10000 nM.

Take `CN1CCN(c2cc(Br)cc(Oc3ccc(S(=O)(=O)NCCCc4c[nH]c5ccc(Cl)cc45)cc3)c2)CC1` [Example 138, N-(3-(5-chloro-1H-indole-3-yl)propyl)-4-(3-bromo-5-(4-methylpiperazine-1-yl)phenoxy)benzenesulfonamide]: the IC50 in experiment [1] (setting [3]) was 1000 to 10000 nM; on Pin1 (setting [7]), below 1000 nM; on Pin1 (setting [4]) it was below 1000 nM; in experiment [2] (setting [5]) it was above 10000 nM.

`CN1CCN(c2cc(Cl)nc(Nc3ccc(S(=O)(=O)NCCCc4c[nH]c5ccc(Cl)cc45)cc3)c2)CC1` [Example 140, N-(3-(5-chloro-1H-indol-3-yl)propyl)-4-((6-chloro-4-(4-methylpiperazin-1-yl)pyridin-2-yl)amino)benzenesulfonamide]: the IC50 in experiment [1] (setting [3]) is 1000 to 10000 nM; at Pin1 (setting [7]) it was below 1000 nM; at Pin1 (setting [4]) it was below 1000 nM.

As to `CN1CCN(c2cc(Nc3ccc(S(=O)(=O)NCCCc4c[nH]c5ccc(Cl)cc45)cc3)nc(N3CCN(C)CC3)c2)CC1` [Example 141, 4-((4,6-bis(4-methylpiperazin-1-yl)pyridin-2-yl)amino)-N-(3-(5-chloro-1H-indol-3-yl)propyl)benzenesulfonamide], the IC50 is 1000 to 10000 nM in experiment [1] (setting [3]), below 1000 nM at Pin1 (setting [7]) and below 1000 nM on Pin1 (setting [4]).

On to `CN1CCN(CCCOc2ccc(C(=O)NCCCc3c[nH]c4ccc(Cl)cc34)cc2)CC1` [Example 143, N-(3-(5-chloro-1H-indole-3-yl)propyl)-4-(3-(4-methylpiperazine-1-yl)propoxy)benzamide], for which the IC50 in experiment [1] (setting [3]) is 1000 to 10000 nM; on Pin1 (setting [7]), below 1000 nM; at Pin1 (setting [4]), below 1000 nM.

Turning to `CS(=O)(=O)CCCOc1ccc(S(=O)(=O)NCCCc2c[nH]c3ccc(Cl)cc23)cc1` [Example 145, N-(3-(5-chloro-1H-indol-3-yl)propyl)-4-(3-(methylsulfonyl)propoxy)benzenesulfonamide], the IC50 in experiment [1] (setting [3]) is above 10000 nM; at Pin1 (setting [7]), below 1000 nM; on Pin1 (setting [4]), below 1000 nM; in experiment [2] (setting [5]) it was above 10000 nM.

Regarding `O=S(=O)(NCCCc1c[nH]c2ccc(Cl)cc12)c1cnc(NCCCN2CCNCC2)s1` [Example 146, N-(3-(5-chloro-1H-indole-3-yl)propyl)-2-((3-(piperazine-1-yl)propyl)amino)thiazole-5-sulfonamide], the IC50 is 1000 to 10000 nM in experiment [1] (setting [3]), below 1000 nM on Pin1 (setting [7]), below 1000 nM at Pin1 (setting [4]) and above 10000 nM in experiment [2] (setting [5]).

Regarding `Cc1[nH]c2ccc(Cl)cc2c1CCCNS(=O)(=O)c1ccc(OCCCN2CCN(C)CC2)cc1` [Example 147, N-(3-(5-chloro-2-methyl-1H-indole-3-yl)propyl)-4-(3-(4-methylpiperazine-1-yl)propoxy)benzenesulfonamide], the IC50 in experiment [1] (setting [3]) was above 10000 nM; at Pin1 (setting [7]), below 1000 nM; on Pin1 (setting [4]), below 1000 nM; in experiment [2] (setting [5]) it was above 10000 nM.
